According to publication PMC7440915, “Discovery of surrogate agonists for visceral fat Treg cells that modulate metabolic indices in vivo” (eLife, 2020):
Where no end group is shown, it is not given here.

Experiments:
HFD-fed B6.CD45.1^+ mice = assay: Anti-TNFα and Fat1562 immunization in HFD-fed mice with vTreg53 Treg transfer; type: in vivo, mouse; conditions: n ≥ 5, anti-TNFα 10 μg/g i.p. twice a week
Description: Figure 7. Immunization with Fat1562 following vTreg53 Treg transfer ameliorates HFD-induced insulin resistance. (A–F) Metabolic indices of mice treated as in Figure 6A (n ≥ 7). (A) Body weight. (B) Insulin tolerance test (ITT). (C) Area over curve for ITT analysis. (D) Glucose tolerance test (GTT). (E) Area under curve for GTT analysis. (F) Plasma insulin levels after 6 hr of fasting. Data shown are representative of at least two independent experiments. (G) Scheme of the anti-TNFα experiment. (H) Number of total Treg cells in VAT (n ≥ 5). (I) Number of CD11c^hi inflammatory macrophages in VAT (n ≥ 5). (J) ITT (n ≥ 5). (K) Area over curve for ITT analysis (n ≥ 5). Data are mean ± SD. Figure 7—figure supplement 1. Absolute blood glucose levels. ITT analysis of mice transferred with vTreg53 TCR-tg Tregs and immunized with adjuvant/Fat1562 or adjuvant alone. Data shown are representative of at least two independent experiments (n ≥ 5). [drawing 7]
12-week-old B6.CD45.1^+ mice were fed with HFD and injected intraperitoneally with 10 μg/g body weight anti-TNFα (XT3.11, BioXCell) or isotype control IgG (HRPN, BioXCell) twice a week for 6 weeks, transferred with 0.4 million Treg cells from pooled Spl/LNs of 6-8wk-old male CD45.2^+ Tg^+ Foxp3-GFP^KI/y mice. […] One week after the IFA/peptides injection, ITT (0.75unit/kg insulin) was performed and the composition of different immunocytes were determined.
For GTT, mice were fasted for 15 hr overnight, weighed, and tested for fasting blood-glucose concentrations. […] Blood-glucose levels were measured before and 20, 40, 60, 90, and 120 min after glucose injection. […] Blood-glucose levels were measured before and 20, 40, 60, 90, and 120 min after insulin injection, and were normalized to the blood-glucose levels before insulin injection. The area under the curve (for GTT) or area over the curve (for ITT) were calculated using GraphPad Prism 7.0.

endogenous Treg cells = assay: Endogenous Fat1562/A^b tetramer^+ Treg cells and scTCR-seq after immunization of wild-type B6 mice; type: in vivo, mouse
Description: We next investigated whether Fat1562 immunization of wild-type B6 mice would elicit expansion of particular Treg clones in VAT, and whether their TCRs would resemble the vTreg53 TCR. 16–20 week-old B6 mice were immunized with Fat1562 using the prime and boost scheme (Figure 4—figure supplement 1A), and the Fat1562-reactive CD4^+ T cells were characterized by staining with the Fat1562/A^b-PE tetramer. […] We then sorted individual Fat1562/A^b tetramer^+ Treg cells from the spleen and VAT of these 3 mice into 96-well plates, and determined the sequences of their TCR-β and TCR-α complementarity-determining region (CDR)3 s. […] Within each mouse, the Spl/LNs and VAT Treg clones had the same CDR3α and CDR3β. […] Therefore, although with some degree of variability, Fat1562 was able to expand an endogenous Treg population that highly resembled the original vTreg53 VAT-Treg clone.
Foxp3^+CD4^+ TCRβ^+ Fat1562/A^b-PE^+ Treg cells from VAT or pooled Spl/LN of 16–20 week-old Foxp3-GFP mice were first sorted in bulk before resorting as individual cells using a MoFlo (Beckman Coulter) into wells of 96-well PCR plates containing the reverse transcriptase reaction mix, and cDNA was prepared as described previously ([Burzyn et al., 2013]). Extreme caution was taken to minimize contamination of wells. […]

TMYKNPRPMAATG [Fat1562]
insulin sensitivity (HFD-fed B6.CD45.1^+ mice; ITT, 0.75unit/kg insulin): slightly improved insulin sensitivity | number of CD11c^hi pro-inflammatory macrophages in VAT (HFD-fed B6.CD45.1^+ mice; VAT): reduced the number of CD11c^hi pro-inflammatory macrophages | number of VAT-Treg cells (HFD-fed B6.CD45.1^+ mice; VAT): moderately increased the numbers of VAT-Treg cells | mice with detectable expansion of Fat1562/A^b tetramer^+ Treg population (endogenous Treg cells; out of the 10 mice immunized, Spl/LN and VAT, 16–20 week-old B6): three | clonality of Fat1562/A^b tetramer^+ Treg population (endogenous Treg cells; three mice, scTCR-seq of CDR3α/β): almost entirely monoclonal
